Measured values from patent publication US6712802B1, “Metabolic therapy directed at electron transport” (priority 1997, dated 2004).
Read-outs that look alike come from different tables or passages of the source.

Columns and labels:
isolated hearts [1] = conditions: 5-minute succinate infusion
Text: (§1) Spraque-Dawley rats (250 to 300 g; Sasco Inc., Omaha, Nebr.) were fasted overnight to standardize the levels of glycogen and fatty acids. The animal protocol was reviewed and approved by an appropriate Animal Care and Research Committee. All animals received humane care in compliance with the “Guide for the Care and Use of Laboratory Animals” (NIH Publication No. 85-23, revised 1985). All chemicals were obtained from Sigma (St. Louis, Mo.).
As previously described by Banerjee et al, the hearts from rats anticoagulated with heparin were excised, immediately arrested in iced oxygenated perfusate, placed on a modified Langendorff apparatus, and retrograded perfused at a constant pressure of 70 mm Hg with nonrecirculating Krebs-Henseleit solution saturated with a gas mixture of 92.5% O2 and 7.5% CO2 Banerjee et al., Circ. Res., 73, 649 (1993). A water-filled latex balloon was inserted into the left ventricle (LV) and the balloon volume was adjusted to achieve a stable LV end-diastolic pressure of 5 mm Hg. This volume was then kept constant for the duration of the study. Pacing wires were fixed to the right atrium, and the hearts were paced at 350 beats per minute except during ischemia and the first three minutes of reperfusion.
The left ventricular developed pressure (LVDP, in mm Hg) was used as an index of myocardial function and was continuously recorded with a computerized bridge amplifier/digitalizer (Maclab 8, AD Instruments) and a Macintosh AV 7100 (Apple Computer). Hearts unable to initially produce 90 to 120 mm Hg LVDP when paced at 350 beats per minute were discarded. A stopcock above the aortic root was turned to create global ischemia, during which time the heart was placed in a degassed humidified chamber at 37° C.
The myocardial cytochrome a,a3 redox state, oxymyoglobin (MbO2) and deoxymyoglobin, was continuously monitored using near infrared spectroscopy (NIRS). The use of NIRS to study cardiac metabolism was described previously. In this study, a single NIRS probe (as disclosed in co-pending U.S. patent application Ser. No. 08/672,625) containing five fiber optic bundles (four peripherally arranged to supply infrared light (700 to 1000 nm) and one fiber positioned 4 mm away to receive the transmitted light) was placed on the lift ventricle. For each heart, a signal reference zero value is set at the beginning of the study. The resultant signal changes are continuously processed and recorded using analytic algorithms to separate the effects of each of the signals. The resulting NIRS measurements were taken directly from the monitor and plotted in absorption units versus time. These strips were then printed and saved for subsequent analysis.
In the second phase of the study, 12 isolated hearts were placed on the Langendorff apparatus as described above. After the equilibration period, 5-minute infusions of succinate at concentrations of 0, 2 ,20 ,200, and 2000 μmol/L were delivered via a Harvard infusion pump directly into a port above the aortic cannula at 0.068 mL/minute. LVDP, heart rate, cytochrome a,a3 redox state, MbO2 and deoxymyoglobin were continuously monitored as described above.

isolated hearts [2] = system: isolated hearts
Text: as §1
As previously described by Banerjee et al, the hearts from rats anticoagulated with heparin were excised, immediately arrested in iced oxygenated perfusate, placed on a modified Langendorff apparatus, and retrograded perfused at a constant pressure of 70 mm Hg with nonrecirculating Krebs-Henseleit solution saturated with a gas mixture of 92.5% O2 and 7.5% CO2 Banerjee et al., Circ. Res., 73, 649 (1993). […]
The left ventricular developed pressure (LVDP, in mm Hg) was used as an index of myocardial function and was continuously recorded with a computerized bridge amplifier/digitalizer (Maclab 8, AD Instruments) and a Macintosh AV 7100 (Apple Computer). […]
The myocardial cytochrome a,a3 redox state, oxymyoglobin (MbO2) and deoxymyoglobin, was continuously monitored using near infrared spectroscopy (NIRS). […] The resultant signal changes are continuously processed and recorded using analytic algorithms to separate the effects of each of the signals. […]

[3] = lower concentrations, non-ischemic heart

## O=C(O)CCC(=O)O [succinate]
Isolated hearts [1]; 20 μmol/L
  LVDP (left ventricular developed pressure): not different from control
  cytochrome a,a3 redox state: reduction of the cytochrome a,a3 redox state
Isolated hearts [1]; 200 μmol/L
  LVDP (left ventricular developed pressure): not different from control
  cytochrome a,a3 redox state: reduction of the cytochrome a,a3 redox state
Isolated hearts [1]; 2000 μmol/L
  LVDP (left ventricular developed pressure): markedly reduced
  cytochrome a,a3 redox state: markedly reduced
Isolated hearts [1]; [3]
  LVDP (left ventricular developed pressure): minimal effects
  cytochrome a,a3 redox state: minimal effects
Isolated hearts [2]; 200 μmol/L succinate for first 5 minutes of reperfusion after 20 min global ischemia, versus control buffer
  cytochrome a,a3 redox state on reperfusion: attenuation of the oxidation
Isolated hearts [2]; succinate given early in reperfusion at the described dosages
  coupling relationship between oxyhemoglobin and the redox state of cytochrome a,a3: restores the coupling relationship
